Broadly, the IC50 is the midpoint of a concentration-inhibition curve.

This is an account of results in article PMC8022280 (ChemMedChem, 2018).

Assay [1] concerns the target T1, Wip1 (Homo sapiens, UniProt O15297).
T1 sequence (O15297 1-605): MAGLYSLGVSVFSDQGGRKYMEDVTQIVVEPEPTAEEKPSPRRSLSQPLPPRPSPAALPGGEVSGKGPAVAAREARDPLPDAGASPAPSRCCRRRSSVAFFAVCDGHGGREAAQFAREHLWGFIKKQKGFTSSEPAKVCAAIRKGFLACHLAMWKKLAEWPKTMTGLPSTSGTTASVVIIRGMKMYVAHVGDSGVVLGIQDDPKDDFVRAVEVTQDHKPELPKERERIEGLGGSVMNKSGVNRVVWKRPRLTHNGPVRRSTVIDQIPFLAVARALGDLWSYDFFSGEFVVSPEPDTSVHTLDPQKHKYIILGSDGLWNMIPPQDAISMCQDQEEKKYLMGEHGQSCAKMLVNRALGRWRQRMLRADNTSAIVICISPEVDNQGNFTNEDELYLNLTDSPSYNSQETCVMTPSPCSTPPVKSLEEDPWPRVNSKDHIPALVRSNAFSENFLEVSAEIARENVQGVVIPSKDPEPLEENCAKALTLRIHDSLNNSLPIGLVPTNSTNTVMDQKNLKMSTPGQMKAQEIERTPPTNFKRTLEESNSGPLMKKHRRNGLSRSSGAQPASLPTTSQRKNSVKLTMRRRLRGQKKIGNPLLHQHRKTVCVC
Briefly: Inhibition of Wip1 phosphatase activity toward the ATM. It counts as biochemical.

The target of assay [2] is T1, Wip1. Kind of assay: Quantitative ELISA of γH2AX levels in MCF7 cells. It counts as cell-based. To be noted: no IR (Figure S2). Background: ELISA stands for enzyme-linked immunosorbent assay.

At Wip1 [1], `COC(=O)[C@H](CCCCNC(=O)[C@H](CC1CCCCC1)NC(=O)c1cccs1)NC(=O)c1cccc(O)c1` [Compound 1, Methyl-N^6-((S)-3-cyclohexyl-2-(thiophene-2-carboxamido)propanoyl)-N^2-(3-hydroxybenzoyl)-L-lysinate] gave an IC50 of 920 nM. In addition, the “increase in γH2AX levels in the absence of exposure to IR” value at Wip1 [2] was “did not produce a detectable increase”.

With `Cc1ncc(Cl)cc1NCc1ccc(C(=O)N[C@@H](CC2CCCC2)C(=O)NC2CC2)s1` [GSK2830371, reference compound], on Wip1 [2], the “increase in γH2AX levels in the absence of exposure to IR” value is recorded as “did not produce a detectable increase”.
